This passage reports remaining binding results from patent US12479847B2 (DANA-FARBER CANCER INSTITUTE, INC., priority 2019, dated 2025).

Experiment in all cases: KINOMEscan (ScanMAX) kinase profiling
Holding throughout (assay type): binding

In test [1] the target is T1, panel of 468 kinases (Homo sapiens, UniProt P00533).
T1 construct: purchased KINOMEscan (ScanMAX) service
The settings on record: EGFR; 1 μM; read-out: % control.

Test [2] addresses T2, panel of 468 kinases (Homo sapiens, UniProt P0C264).
T2 construct: purchased KINOMEscan (ScanMAX) service
T2 sequence (P0C264 1-359): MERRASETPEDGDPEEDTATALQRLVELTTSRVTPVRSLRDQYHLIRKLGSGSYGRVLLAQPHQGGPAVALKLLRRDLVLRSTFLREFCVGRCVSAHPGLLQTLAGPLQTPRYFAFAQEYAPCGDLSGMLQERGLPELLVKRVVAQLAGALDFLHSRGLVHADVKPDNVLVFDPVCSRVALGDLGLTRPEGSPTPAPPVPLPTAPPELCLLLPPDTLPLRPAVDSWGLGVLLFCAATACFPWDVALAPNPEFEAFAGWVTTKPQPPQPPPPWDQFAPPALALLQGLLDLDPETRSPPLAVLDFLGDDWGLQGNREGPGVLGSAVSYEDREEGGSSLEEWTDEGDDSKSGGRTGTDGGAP
As to conditions: SgK110; 1 μM; read-out: % control.

Test [3] has as its target T3, panel of 468 kinases (Homo sapiens, UniProt Q12866).
T3 construct: purchased KINOMEscan (ScanMAX) service
T3 sequence (Q12866 21-999): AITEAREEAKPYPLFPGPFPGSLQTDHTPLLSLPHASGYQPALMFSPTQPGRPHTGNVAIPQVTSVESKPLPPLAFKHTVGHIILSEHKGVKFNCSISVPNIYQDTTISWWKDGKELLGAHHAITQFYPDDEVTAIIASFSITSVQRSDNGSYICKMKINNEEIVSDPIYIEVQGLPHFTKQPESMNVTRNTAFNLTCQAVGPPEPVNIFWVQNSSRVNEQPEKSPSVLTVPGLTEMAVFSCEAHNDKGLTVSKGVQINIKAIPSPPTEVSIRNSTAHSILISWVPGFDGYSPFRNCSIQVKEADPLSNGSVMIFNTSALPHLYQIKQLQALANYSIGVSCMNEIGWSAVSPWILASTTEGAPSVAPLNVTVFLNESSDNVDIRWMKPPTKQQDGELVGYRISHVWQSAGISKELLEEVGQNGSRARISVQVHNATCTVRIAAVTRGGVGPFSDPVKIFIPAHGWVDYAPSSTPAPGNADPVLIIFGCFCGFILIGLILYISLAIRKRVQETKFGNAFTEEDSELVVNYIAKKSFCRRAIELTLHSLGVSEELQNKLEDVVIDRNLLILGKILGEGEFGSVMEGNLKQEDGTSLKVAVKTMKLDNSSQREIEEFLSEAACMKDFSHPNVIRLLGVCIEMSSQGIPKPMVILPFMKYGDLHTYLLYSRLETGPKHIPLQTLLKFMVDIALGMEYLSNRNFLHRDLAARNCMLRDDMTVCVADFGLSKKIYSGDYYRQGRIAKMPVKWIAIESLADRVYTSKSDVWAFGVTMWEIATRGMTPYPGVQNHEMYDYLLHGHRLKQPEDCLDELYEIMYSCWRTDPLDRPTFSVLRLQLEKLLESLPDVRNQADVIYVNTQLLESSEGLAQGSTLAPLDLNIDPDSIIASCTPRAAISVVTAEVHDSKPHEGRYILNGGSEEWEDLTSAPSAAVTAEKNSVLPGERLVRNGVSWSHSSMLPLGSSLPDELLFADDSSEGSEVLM
The settings on record: MERTK; 1 μM; read-out: % control.

The target in test [4] is T4, panel of 468 kinases (Homo sapiens, UniProt Q6XUX3).
T4 construct: purchased KINOMEscan (ScanMAX) service
T4 sequence (Q6XUX3 1-929): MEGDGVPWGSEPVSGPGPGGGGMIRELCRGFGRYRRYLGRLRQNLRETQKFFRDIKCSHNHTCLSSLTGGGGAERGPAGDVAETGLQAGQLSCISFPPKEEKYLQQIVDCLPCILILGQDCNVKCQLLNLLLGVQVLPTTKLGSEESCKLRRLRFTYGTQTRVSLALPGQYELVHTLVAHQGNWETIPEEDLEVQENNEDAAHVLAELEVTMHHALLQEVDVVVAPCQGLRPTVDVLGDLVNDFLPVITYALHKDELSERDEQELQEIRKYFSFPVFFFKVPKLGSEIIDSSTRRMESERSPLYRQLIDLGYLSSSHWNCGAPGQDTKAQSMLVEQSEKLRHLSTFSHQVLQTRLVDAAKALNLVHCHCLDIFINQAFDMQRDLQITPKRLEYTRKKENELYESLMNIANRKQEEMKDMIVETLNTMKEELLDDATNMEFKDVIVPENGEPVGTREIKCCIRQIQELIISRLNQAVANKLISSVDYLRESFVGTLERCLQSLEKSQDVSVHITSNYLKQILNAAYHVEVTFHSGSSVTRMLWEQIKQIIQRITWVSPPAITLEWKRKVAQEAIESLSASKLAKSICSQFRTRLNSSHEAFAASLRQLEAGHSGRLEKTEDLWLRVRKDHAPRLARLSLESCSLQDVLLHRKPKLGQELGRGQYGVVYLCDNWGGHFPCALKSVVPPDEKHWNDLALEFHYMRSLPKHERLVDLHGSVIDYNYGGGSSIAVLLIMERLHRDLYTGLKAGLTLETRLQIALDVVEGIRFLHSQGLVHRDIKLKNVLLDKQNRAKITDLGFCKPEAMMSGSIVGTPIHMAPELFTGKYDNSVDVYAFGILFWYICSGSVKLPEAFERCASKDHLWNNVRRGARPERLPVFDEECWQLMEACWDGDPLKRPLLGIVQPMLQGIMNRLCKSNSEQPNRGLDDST
The settings on record: RIPK5; 1 μM; read-out: % control.

In test [5] the target is T5, panel of 468 kinases (Homo sapiens, UniProt Q8IU85).
T5 construct: purchased KINOMEscan (ScanMAX) service
The settings on record: CAMK1D; 1 μM; read-out: % control.

Each structure is given as a SMILES string.

T1 sequence (P00533 25-1210): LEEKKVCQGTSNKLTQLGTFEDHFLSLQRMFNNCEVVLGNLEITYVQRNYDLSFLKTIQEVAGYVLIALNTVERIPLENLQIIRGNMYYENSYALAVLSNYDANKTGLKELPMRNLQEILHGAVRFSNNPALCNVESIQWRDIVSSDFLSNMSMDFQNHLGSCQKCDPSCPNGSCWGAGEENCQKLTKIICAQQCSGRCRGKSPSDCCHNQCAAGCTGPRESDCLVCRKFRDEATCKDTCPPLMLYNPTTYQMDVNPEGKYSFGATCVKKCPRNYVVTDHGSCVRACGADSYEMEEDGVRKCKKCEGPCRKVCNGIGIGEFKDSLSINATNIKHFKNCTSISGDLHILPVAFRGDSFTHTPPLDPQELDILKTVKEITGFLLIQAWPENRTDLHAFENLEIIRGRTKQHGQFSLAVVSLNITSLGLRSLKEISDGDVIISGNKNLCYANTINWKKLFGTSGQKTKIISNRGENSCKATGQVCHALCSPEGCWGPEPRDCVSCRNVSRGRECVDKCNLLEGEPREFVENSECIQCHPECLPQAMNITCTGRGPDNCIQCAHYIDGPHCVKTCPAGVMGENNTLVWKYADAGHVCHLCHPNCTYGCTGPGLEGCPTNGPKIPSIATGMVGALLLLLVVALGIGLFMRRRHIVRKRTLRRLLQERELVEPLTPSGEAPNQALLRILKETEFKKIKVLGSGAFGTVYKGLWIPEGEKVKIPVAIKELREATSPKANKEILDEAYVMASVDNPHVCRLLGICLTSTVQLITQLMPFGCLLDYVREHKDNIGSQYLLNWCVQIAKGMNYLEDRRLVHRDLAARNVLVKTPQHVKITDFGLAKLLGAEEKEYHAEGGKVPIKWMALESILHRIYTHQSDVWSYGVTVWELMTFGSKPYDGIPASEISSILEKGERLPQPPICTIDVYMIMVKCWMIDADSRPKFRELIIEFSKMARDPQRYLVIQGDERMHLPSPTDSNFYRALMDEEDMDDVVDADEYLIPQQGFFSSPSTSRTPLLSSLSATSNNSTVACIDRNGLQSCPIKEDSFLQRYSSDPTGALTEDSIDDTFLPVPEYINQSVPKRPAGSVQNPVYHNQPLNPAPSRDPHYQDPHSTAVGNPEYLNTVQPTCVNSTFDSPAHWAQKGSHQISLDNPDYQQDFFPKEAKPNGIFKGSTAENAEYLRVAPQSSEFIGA
T5 sequence (Q8IU85 whole entry): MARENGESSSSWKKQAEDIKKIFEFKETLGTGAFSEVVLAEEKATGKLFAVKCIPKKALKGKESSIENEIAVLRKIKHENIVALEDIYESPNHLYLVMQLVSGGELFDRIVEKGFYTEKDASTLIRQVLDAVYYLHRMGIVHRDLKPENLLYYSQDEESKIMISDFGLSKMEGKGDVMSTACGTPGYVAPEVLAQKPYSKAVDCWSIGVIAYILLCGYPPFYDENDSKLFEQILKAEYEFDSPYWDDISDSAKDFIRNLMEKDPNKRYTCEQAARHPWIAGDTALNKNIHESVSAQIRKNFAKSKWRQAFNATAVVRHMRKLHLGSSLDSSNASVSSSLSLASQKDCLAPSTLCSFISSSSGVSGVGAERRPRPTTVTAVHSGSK

With `CNc1nc(Nc2ccc(S(=O)(=O)N3CCC(N4CCOCC4)CC3)cc2OC)nc2[nH]cc(Cl)c12` [Compound 12, 5-chloro-N2-(2-methoxy-4-((4-morpholinopiperidin-1-yl)sulfonyl)phenyl)-N4-methyl-7H-pyrrolo[2,3-d]pyrimidine-2,4-diamine], the remaining binding at 1 µM turned out to be 89% on panel of 468 kinases [1]; 92% on panel of 468 kinases [2]; 96% at panel of 468 kinases [3]; 23% on panel of 468 kinases [4]; 96% on panel of 468 kinases [5].

As for `CNc1nc(Nc2ccc(P3(=O)CCN(C4CCOCC4)CC3)cc2OC)nc2[nH]cc(Cl)c12` [Compound 77, 4-(4-((5-chloro-4-(methylamino)-7H-pyrrolo[2,3-d]pyrimidin-2-yl)amino)-3-methoxyphenyl)-1-(tetrahydro-2H-pyran-4-yl)-1,4-azaphosphinane 4-oxide], the remaining binding at 1 µM on panel of 468 kinases [1] was found to be 84%; at panel of 468 kinases [2] it was 98%; on panel of 468 kinases [3] it was 98%; at panel of 468 kinases [4], 20%; at panel of 468 kinases [5], 39%.

As to `CNc1nc(Nc2ccc(C(=O)N3CCC(N4CCOCC4)CC3)c3c2OCO3)nc2[nH]cc(Cl)c12` [Compound 75, (7-((5-chloro-4-(methylamino)-7H-pyrrolo[2,3-d]pyrimidin-2-yl)amino)benzo[d][1,3]dioxol-4-yl)(4-morpholinopiperidin-1-yl)methanone], the remaining binding at 1 µM on panel of 468 kinases [1] worked out at 80%; at panel of 468 kinases [2] it was 100%; on panel of 468 kinases [3], 85%; at panel of 468 kinases [4], 9.9%; at panel of 468 kinases [5] it was 47%.
